From patent publication US12252487B2, “Dominant salt forms of pyrimidine derivatives, and crystal forms thereof” (GUANGDONG RAYNOVENT BIOTECH CO., LTD., priority 2019, dated 2025) come the findings set out here.

In brackets after ≈: the same amount, converted by molar mass. Where only a bound is given, the exact number is not on record here.

What all share (format): physicochemical
The nature of data set [1]: Stability study of crystal forms, XRPD characterization on day 14. The method, then: An amount of sample to be tested was weighed and placed in a dish under conditions including high temperature (60° C.), high humidity (25° C., 92.5% RH), light radiation (25° C., 4500 Lux) and acceleration conditions (40° C., 75% RH), respectively, and sampled for XRPD characterization on day 14. Form I, Form II, Form III were taken for stability study under conditions including high temperature (60° C.), high humidity (25° C., 92.5% RH), light radiation (25° C., 4500 Lux), and acceleration conditions (40° C., 75% RH), and the results are shown in Table 2: […]

The nature of data set [2]: Crystal form transition observed during experiment / post-treatment. As to conditions: e.g. drying under vacuum at ambient temperature. From the text: The crystal form VII and the crystal form VIII can be obtained by similar method but by different post-treatment means.
Data set [3] can be described thus: Solubility of Compound 1 in 19 types of solvents at room temperature. The settings on record: for solubility: thermodynamic from solid. The text has this: Compound 1 was detected at room temperature for its solubility in 19 types of solvents. Specially, Compound 1 obtained in Example 1 was taken as sample for detecting its solubility in methanol, ethanol, water, acetonitrile, dioxane and other solvents.

Data set [4] is described as follows: XRPD of crystal form after DVS test. From the text: The crystal form IV is obtained by heating the crystal form III to lose some crystalline water.

On to `O=C(O)[C@H]1C2CCC(CC2)[C@@H]1Nc1nc(-c2n[nH]c3ncc(F)cc23)nc(C2CC2)c1F` [Crystal Form I], for which the “Results on Day 14 (XRPD)” value in data set [1] (Acceleration conditions (40° C., 75% RH)) is “No changes”; in data set [1] (Light radiation (25° C., 4500 Lux)), “No changes”.

For `O=C(O)[C@H]1C2CCC(CC2)[C@@H]1Nc1nc(-c2n[nH]c3ncc(F)cc23)nc(C2CC2)c1F` [crystal form IX], in data set [2], the “Stability of the crystal form as concluded from crystal form transitions” value (“Stability of the crystal form” for short) is given as “intermediate metastable crystal form”.

Consider `O=C(O)[C@H]1C2CCC(CC2)[C@@H]1Nc1nc(-c2n[nH]c3ncc(F)cc23)nc(C2CC2)c1F` [Compound 1], for which the “Solubility as a whole compared with WX-216” value in data set [3] (19 solvents, room temperature) was “better than that of WX-216”. Also, the solubility in data set [3] (organic solvent or mixture, solvent Acetone, 3000 μL, not dissolved completely at 50° C.) was under 3.3 mg/mL; in data set [3] (organic solvent or mixture, solvent Acetonitrile, 3000 μL, not dissolved completely at 50° C.), under 3.3 mg/mL; in data set [3] (organic solvent or mixture, solvent Dichloromethane, 3000 μL, not dissolved completely at 50° C.), under 3.3 mg/mL; in data set [3] (organic solvent or mixture, solvent Dimethylformamide, 200 μL) it was over 50 mg/mL; in data set [3] (organic solvent or mixture, solvent Dimethylsulfoxide, 200 μL), over 50 mg/mL; in data set [3] (organic solvent or mixture, solvent Dioxane, 3000 μL, not dissolved completely at 50° C.), under 3.3 mg/mL. Besides, the solubility in data set [3] (organic solvent or mixture, solvent Ethanol, 3000 μL, not dissolved completely at 50° C.) was under 3.3 mg/mL; in data set [3] (organic solvent or mixture, solvent Ethyl acetate, 3000 μL, not dissolved completely at 50° C.), under 3.3 mg/mL; in data set [3] (organic solvent or mixture, solvent Ethyl formate, 3000 μL, not dissolved completely at 50° C.), under 3.3 mg/mL; in data set [3] (organic solvent or mixture, solvent Ethylene glycol dimethyl ether, 3000 μL, not dissolved completely at 50° C.), under 3.3 mg/mL; in data set [3] (organic solvent or mixture, solvent Ethylene glycol monomethyl ether, 200 μL) it was over 50 mg/mL; in data set [3] (organic solvent or mixture, solvent Iso-propanol, 3000 μL, not dissolved completely at 50° C.) it was under 3.3 mg/mL. Moreover, the solubility in data set [3] (organic solvent or mixture, solvent Methanol, 500 μL) is 20 to 50 mg/mL (≈ 45.4 to 114 mM); in data set [3] (organic solvent or mixture, solvent Methyl isobutyl ketone, 3000 μL, not dissolved completely at 50° C.), under 3.3 mg/mL; in data set [3] (organic solvent or mixture, solvent Methyl tert-butyl ether, 3000 μL, not dissolved completely at 50° C.), under 3.3 mg/mL; in data set [3] (organic solvent or mixture, solvent N-hexane, 3000 μL, not dissolved completely at 50° C.) it was under 3.3 mg/mL; in data set [3] (organic solvent or mixture, solvent N-propanol, 3000 μL, not dissolved completely at 50° C.), under 3.3 mg/mL; in data set [3] (organic solvent or mixture, solvent Tetrahydrofuran, 3000 μL, not dissolved completely at 50° C.), under 3.3 mg/mL. The same compound displayed a solubility in data set [3] (solvent Water, 200 μL) of over 50 mg/mL.

For `O=C(O)[C@H]1C2CCC(CC2)[C@@H]1Nc1nc(-c2n[nH]c3ncc(F)cc23)nc(C2CC2)c1F` [crystal form VII], the “Stability of the crystal form” value in data set [2] is “high stability”.

Turning to `O=C(O)[C@H]1C2CCC(CC2)[C@@H]1Nc1nc(-c2n[nH]c3ncc(F)cc23)nc(C2CC2)c1F` [crystal form VIII], in data set [2], the “Stability of the crystal form” value is “high stability”.

In the case of `O=C(O)[C@H]1C2CCC(CC2)[C@@H]1Nc1nc(-c2n[nH]c3ncc(F)cc23)nc(C2CC2)c1F` [crystal form VI], the “Stability of the crystal form” value in data set [2] is given as “unstable crystal form”.

For `O=C(O)[C@H]1C2CCC(CC2)[C@@H]1Nc1nc(-c2n[nH]c3ncc(F)cc23)nc(C2CC2)c1F` [crystal form IV], the “Crystal form change after DVS test (XRPD)” value in data set [4] is recorded as “does not change”.

`O=C(O)[C@H]1C2CCC(CC2)[C@@H]1Nc1nc(-c2n[nH]c3ncc(F)cc23)nc(C2CC2)c1F` [Crystal Form II]: the “Results on Day 14 (XRPD)” value in data set [1] (High humidity (25° C., 92.5% RH)) is on record as “No changes”; in data set [1] (High temperature (60° C.)), “No changes”.

As to `O=C(O)[C@H]1C2CCC(CC2)[C@@H]1Nc1nc(-c2n[nH]c3ncc(F)cc23)nc(C2CC2)c1F` [crystal form V], in data set [2], the “Stability of the crystal form” value is on record as “high stability”.

For orientation: solubility means the dissolved amount per volume that the medium holds.
